Source: patent US10800752B2, “Substituted naphtho[2,3-b]furans as water-soluble prodrugs for preventing and/or treating cancer” (BOSTON BIOMEDICAL, INC., priority 2015, dated 2020)

Experiments:
[1] = Evaluation of a conversion rate to 2-acetylnaphtho[2,3-b]furan-4,9-dione in human plasma; type: in vitro ADME; settings: Human plasma, 1 umol/L, 37° C., incubation time 120 min
Description: (§1) For test compounds, the decrease rate of the test compounds and the conversion rate thereof to 2-acetylnaphtho[2,3-b]furan-4,9-dione in human plasma, CD1 mouse plasma, and pH 7.4 phosphate buffer solution were measured.
(§2) Test compounds were incubated at the concentration of 1 umol/L in human plasma (cat. no. 12250210, COSMO BIO), CD1 mouse plasma (cat. no. AP3054, KAC), and phosphate buffer solution at 37° C., and removed at predetermined times (0, 5, 10, 30, 60, and 120 minutes). After protein-removing treatment was performed, they are analyzed with LC-MS. It should be noted that the protein-removing treatment used acetonitrile containing: 10% volume of 1 mol/L hydrochloric acid; 1% volume of 46% citric acid; and phenytoin as an internal standard.
(§3) The measurement condition of LC-MS is as described below. LC-MS condition column: Kinetex 2.6 u PFP 100 A 50×2.1 mm Column temperature: 40° C.
(§4) Mobile phase: A: 0.1% formic acid-containing water
(§5) • B: 0.1% formic acid-containing acetonitrile A/B(min): 95/5(0)→5/95(3)→5/95(4)→95/5(4.1)→95/5(6) Flow rate: 0.4 mL/min Detection: ESI (positive mode) Injection volume: 10 uL
In the same way as Example 6, the incubation time was set as 120 minutes later, and the conversion rate of each of various test compounds to 2-acetylnaphtho[2,3-b]furan-4,9-dione in human plasma, CD1 mouse plasma, and pH 7.4 phosphate buffer solution was measured.

[2] = Evaluation of a conversion rate to 2-acetylnaphtho[2,3-b]furan-4,9-dione in CD1 mouse plasma; type: in vitro ADME; settings: CD1 mouse plasma, 1 umol/L, 37° C., incubation time 120 min
Description: as §1, §2, §3, §4, §5
Measurement values are calculated from the peak area ratio in LC-MS between an internal standard material, phenytoin and an active form, 2-acetylnaphtho[2,3-b]furan-4,9-dione, and are expressed in %.
In the same way as Example 6, the incubation time was set as 120 minutes later, and the conversion rate of each of various test compounds to 2-acetylnaphtho[2,3-b]furan-4,9-dione in human plasma, CD1 mouse plasma, and pH 7.4 phosphate buffer solution was measured. A series of the present compounds were confirmed to be converted to 2-acetylnaphtho[2,3-b]furan-4,9-dione in pH 7.4 phosphate buffer solution in addition to human plasma and CD1 mouse plasma. Therefore, a series of the test compounds of the present invention were confirmed to be converted to the activated form via a route other than an enzymatic conversion.

[3] = Evaluation of a conversion rate to 2-acetylnaphtho[2,3-b]furan-4,9-dione in pH 7.4 phosphate buffer solution; type: physicochemical; settings: Phosphate buffer solution (pH 7.4), 1 umol/L, 37° C., incubation time 120 min
Summary of the method: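 Compounds at 1 umol/L were incubated at 37° C in human plasma, CD1 mouse plasma or pH 7.4 phosphate buffer, sampled up to 120 minutes, acid/acetonitrile-deproteinised and analysed by LC-MS (ESI positive). Conversion (%) derived from the peak area ratio of the active form to phenytoin internal standard.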

Solubility test = settings: 50 mmol/L glycine buffer solution (pH 2.0), room temperature, 24 hours shaking
Description: A water-soluble prodrug was added into 50 mmol/L glycine buffer solution (pH 2.0). After shaking at room temperature for 24 hours, the mixture was filtered through a membrane filter, and then the filtrate was measured with HPLC.
The measurement condition of HPLC is as described below. HPLC condition column: Acquity UPLC BEH C18, 1.7 um, 50×2.1 mm
Mobile phase: A: 0.1% trifluoroacetic acid-containing water

| SMILES | % Measurement value (conversion rate to 2-acetylnaphtho[2,3-b]furan-4,9-dione) [1] | % Measurement value (conversion rate to 2-acetylnaphtho[2,3-b]furan-4,9-dione) [2] | % Measurement value (conversion rate to 2-acetylnaphtho[2,3-b]furan-4,9-dione) [3] | Solubility in pH 2.0 buffer solution (Solubility test) |
| --- | --- | --- | --- | --- |
| COC(=O)[C@@H](N)CNC(=O)Oc1c2ccccc2c(OC(=O)NC[C@H](N)C(=O)OC)c2oc(C(C)=O)cc12.Cl.Cl [Example 32] | 81% | 74% | 46% | >5.0 mg/mL |
| CC(=O)c1cc2c(OC(=O)NCCCCCNCC(=O)O)c3ccccc3c(OC(=O)NCCCCCNCC(=O)O)c2o1.Cl.Cl [Example 35] | 78% | 70% | 38% | >5.0 mg/mL |
| COC(=O)CNCCNC(=O)Oc1c2ccccc2c(OC(=O)NCCNCC(=O)OC)c2oc(C(C)=O)cc12.Cl.Cl [Example 36] | 73% | 66% | 46% | >5.0 mg/mL |
| CC(=O)c1cc2c(OC(=O)NCCCCCCN)c3ccccc3c(OC(=O)NCCCCCCN)c2o1.Cl.Cl [Example 37] | 35% | 33% | 17% | >5.0 mg/mL |
| CC(=O)c1cc2c(OC(=O)NCCCCCCCN)c3ccccc3c(OC(=O)NCCCCCCCN)c2o1.Cl.Cl [Example 38] | 85% | 72% | 39% | >5.0 mg/mL |
| CC(=O)c1cc2c(OC(=O)NCCCCCCCCN)c3ccccc3c(OC(=O)NCCCCCCCCN)c2o1.Cl.Cl [Example 39] | 80% | 62% | 31% | >5.0 mg/mL |
| CC(=O)c1cc2c(OC(=O)NCCCNCC(=O)O)c3ccccc3c(OC(=O)NCCCNCC(=O)O)c2o1.Cl.Cl [Example 40] | 89% | 86% | 50% | >5.0 mg/mL |
| CC(=O)c1cc2c(OC(=O)NCCNCC(=O)NCC(=O)O)c3ccccc3c(OC(=O)NCCNCC(=O)NCC(=O)O)c2o1.Cl.Cl [Example 41] | 86% | 81% | 52% | >5.0 mg/mL |
| CC(=O)c1cc2c(OC(=O)NCCNCC(=O)O)c3ccccc3c(O)c2o1.Cl [Example 71] | 61% | 68% | 70% | 0.1 mg/mL |
| CC(=O)c1cc2c(OC(=O)NCCCCCN)c3ccccc3c(O)c2o1.Cl [Example 72] | 53% | 42% | 38% | 2.4 mg/mL |
| CC(=O)c1cc2c(OC(=O)NCCCCCCCN)c3ccccc3c(O)c2o1.Cl [Example 73] | 88% | 63% | 66% | 0.1 mg/mL |
| CC(=O)c1cc2c(OC(=O)NCCCCN)c3ccccc3c(O)c2o1.Cl [Example 74] | 70% | 62% | 82% | 4.9 mg/mL |
| CC(=O)c1cc2c(OC(=O)NCCCCCCCCN)c3ccccc3c(O)c2o1.Cl [Example 75] | 79% | 60% | 45% | 0.1 mg/mL |
| CC(=O)c1cc2c(OC(=O)NCCCCCNCC(=O)O)c3ccccc3c(O)c2o1.Cl [Example 76] | 68% | 71% | 57% | 0.4 mg/mL |
| CC(=O)c1cc2c(OC(=O)NCCCNCC(=O)O)c3ccccc3c(O)c2o1.Cl [Example 77] | 68% | 70% | 66% | 0.5 mg/mL |
| CC(=O)c1cc2c(O)c3ccccc3c(OC(=O)NCCNCC(=O)O)c2o1.Cl [Example 78] | 54% | 66% | 43% | 0.1 mg/mL |
| CC(=O)c1cc2c(O)c3ccccc3c(OC(=O)NCCNCC(=O)NCC(=O)O)c2o1.Cl [Example 83] | 67% | 67% | 31% | >5.0 mg/mL |
